# Results published in PubChem BioAssay (NCI).
#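 1) Cells in 96-well plates. 2) Compound, 48 h, 5 concentrations. 3) Linear interpolation between surrounding doses. 4) Unreached endpoint = highest concentration. Here, GI50 denotes the concentration required for 50% inhibition of growth. TGI is the concentration that stops growth completely.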
# Legend:
# Experiment in all cases: inhibition of tumour cell growth, NCI panel, 48 h
# 786-0 renal = system: 786-0 renal
# A498 renal = system: A498 renal
# A549 NSCLC = system: A549 NSCLC
# ACHN renal = system: ACHN renal
# BT-549 breast = system: BT-549 breast
# CAKI-1 renal = system: CAKI-1 renal
# CCRF-CEM leukemia = system: CCRF-CEM leukemia
# COLO 205 colon = system: COLO 205 colon
# DU-145 prostate = system: DU-145 prostate
# EKVX NSCLC = system: EKVX NSCLC
# HCC-2998 colon = system: HCC-2998 colon
# HCT-116 colon = system: HCT-116 colon
# HCT-15 colon = system: HCT-15 colon
# HL-60(TB) leukemia = system: HL-60(TB) leukemia
# HOP-62 NSCLC = system: HOP-62 NSCLC
# HOP-92 NSCLC = system: HOP-92 NSCLC
# HS 578T breast = system: HS 578T breast
# HT29 colon = system: HT29 colon
# IGROV1 ovarian = system: IGROV1 ovarian
# K-562 leukemia = system: K-562 leukemia
# KM12 colon = system: KM12 colon
# LOX IMVI melanoma = system: LOX IMVI melanoma
# M14 melanoma = system: M14 melanoma
# MALME-3M melanoma = system: MALME-3M melanoma
# MCF7 breast = system: MCF7 breast
# MDA-MB-231 breast = system: MDA-MB-231 breast
# MDA-MB-435 = system: MDA-MB-435
# MOLT-4 leukemia = system: MOLT-4 leukemia
# NCI-H226 lung = system: NCI-H226 lung
# NCI-H23 lung = system: NCI-H23 lung
# NCI-H460 lung = system: NCI-H460 lung
# NCI-H522 lung = system: NCI-H522 lung
# NCI/ADR-RES ovarian = system: NCI/ADR-RES ovarian
# OVCAR-3 ovarian = system: OVCAR-3 ovarian
# OVCAR-4 ovarian = system: OVCAR-4 ovarian
# OVCAR-5 ovarian = system: OVCAR-5 ovarian
# OVCAR-8 ovarian = system: OVCAR-8 ovarian
# PC-3 prostate = system: PC-3 prostate
# RPMI-8226 leukemia = system: RPMI-8226 leukemia
# RXF 393 renal = system: RXF 393 renal
# SF-268 CNS = system: SF-268 CNS
# SF-295 CNS = system: SF-295 CNS
# SF-539 CNS = system: SF-539 CNS
# SK-MEL-2 melanoma = system: SK-MEL-2 melanoma
# SK-MEL-28 melanoma = system: SK-MEL-28 melanoma
# SK-MEL-5 melanoma = system: SK-MEL-5 melanoma
# SK-OV-3 ovarian = system: SK-OV-3 ovarian
# SN12C renal = system: SN12C renal
# SNB-19 CNS = system: SNB-19 CNS
# SNB-75 CNS = system: SNB-75 CNS
# SR leukemia = system: SR leukemia
# SW-620 colon = system: SW-620 colon
# T-47D breast = system: T-47D breast
# TK-10 renal = system: TK-10 renal
# U251 CNS = system: U251 CNS
# UACC-257 melanoma = system: UACC-257 melanoma
# UACC-62 melanoma = system: UACC-62 melanoma
# UO-31 renal = system: UO-31 renal
smiles,measurement,setting,value
CCCn1cnc2c(c1=N)C(c1ccc(F)cc1)c1sc3c(C)cccc3c1O2 (stereo unspecified),GI50,786-0 renal,1.08 µM
same,TGI,786-0 renal,14.5 µM
same,GI50,A498 renal,0.584 µM
same,TGI,A498 renal,3.95 µM
same,GI50,A549 NSCLC,2.15 µM
same,TGI,A549 NSCLC,> 48.8 µM
same,GI50,ACHN renal,1.45 µM
same,TGI,ACHN renal,16.1 µM
same,GI50,BT-549 breast,5.84 µM
same,TGI,BT-549 breast,22.8 µM
same,GI50,CAKI-1 renal,0.546 µM
same,TGI,CAKI-1 renal,> 39.5 µM
same,GI50,CCRF-CEM leukemia,1.03 µM
same,TGI,CCRF-CEM leukemia,> 43.8 µM
same,GI50,COLO 205 colon,2.6 µM
same,TGI,COLO 205 colon,8.22 µM
same,GI50,DU-145 prostate,3.34 µM
same,TGI,DU-145 prostate,29.5 µM
same,GI50,EKVX NSCLC,3.7 µM
same,TGI,EKVX NSCLC,27.6 µM
same,GI50,HCC-2998 colon,2.01 µM
same,TGI,HCC-2998 colon,6.08 µM
same,GI50,HCT-116 colon,0.467 µM
same,TGI,HCT-116 colon,11.8 µM
same,GI50,HCT-15 colon,1.05 µM
same,TGI,HCT-15 colon,12.7 µM
same,GI50,HL-60(TB) leukemia,1.48 µM
same,TGI,HL-60(TB) leukemia,7.87 µM
same,GI50,HOP-62 NSCLC,2.08 µM
same,TGI,HOP-62 NSCLC,31.1 µM
same,GI50,HOP-92 NSCLC,0.458 µM
same,TGI,HOP-92 NSCLC,7.5 µM
same,GI50,HS 578T breast,0.961 µM
same,TGI,HS 578T breast,14.3 µM
same,GI50,HT29 colon,3.16 µM
same,TGI,HT29 colon,12.8 µM
same,GI50,IGROV1 ovarian,1.23 µM
same,TGI,IGROV1 ovarian,13.1 µM
same,GI50,K-562 leukemia,0.358 µM
same,TGI,K-562 leukemia,22.6 µM
same,GI50,KM12 colon,1.63 µM
same,TGI,KM12 colon,> 36.3 µM
same,GI50,LOX IMVI melanoma,0.962 µM
same,TGI,LOX IMVI melanoma,13.2 µM
same,GI50,M14 melanoma,0.637 µM
same,TGI,M14 melanoma,11.3 µM
same,GI50,MALME-3M melanoma,2.66 µM
same,TGI,MALME-3M melanoma,24.2 µM
same,GI50,MCF7 breast,0.351 µM
same,TGI,MCF7 breast,13.8 µM
same,GI50,MDA-MB-231 breast,3.09 µM
same,TGI,MDA-MB-231 breast,15.7 µM
same,GI50,MDA-MB-435,0.328 µM
same,TGI,MDA-MB-435,1.27 µM
same,GI50,MOLT-4 leukemia,3.48 µM
same,TGI,MOLT-4 leukemia,> 54.2 µM
same,GI50,NCI-H226 lung,2.87 µM
same,TGI,NCI-H226 lung,15.1 µM
same,GI50,NCI-H23 lung,1.62 µM
same,TGI,NCI-H23 lung,10.9 µM
same,GI50,NCI-H460 lung,1.05 µM
same,TGI,NCI-H460 lung,11.5 µM
same,GI50,NCI-H522 lung,0.4 µM
same,TGI,NCI-H522 lung,12.1 µM
same,GI50,NCI/ADR-RES ovarian,0.425 µM
same,TGI,NCI/ADR-RES ovarian,6.99 µM
same,GI50,OVCAR-3 ovarian,0.815 µM
same,TGI,OVCAR-3 ovarian,10.6 µM
same,GI50,OVCAR-4 ovarian,2.79 µM
same,TGI,OVCAR-4 ovarian,> 42.5 µM
same,GI50,OVCAR-5 ovarian,3.66 µM
same,TGI,OVCAR-5 ovarian,18.4 µM
same,GI50,OVCAR-8 ovarian,3.79 µM
same,TGI,OVCAR-8 ovarian,31 µM
same,GI50,PC-3 prostate,0.638 µM
same,TGI,PC-3 prostate,15.2 µM
same,GI50,RPMI-8226 leukemia,0.961 µM
same,TGI,RPMI-8226 leukemia,7.91 µM
same,GI50,RXF 393 renal,0.227 µM
same,TGI,RXF 393 renal,0.741 µM
same,GI50,SF-268 CNS,2.71 µM
same,TGI,SF-268 CNS,21.9 µM
same,GI50,SF-295 CNS,0.581 µM
same,TGI,SF-295 CNS,11 µM
same,GI50,SF-539 CNS,1.16 µM
same,TGI,SF-539 CNS,5.07 µM
same,GI50,SK-MEL-2 melanoma,5.41 µM
same,TGI,SK-MEL-2 melanoma,30.1 µM
same,GI50,SK-MEL-28 melanoma,5.79 µM
same,TGI,SK-MEL-28 melanoma,22.7 µM
same,GI50,SK-MEL-5 melanoma,1.25 µM
same,TGI,SK-MEL-5 melanoma,11.9 µM
same,GI50,SK-OV-3 ovarian,2.23 µM
same,TGI,SK-OV-3 ovarian,38.8 µM
same,GI50,SN12C renal,2.94 µM
same,TGI,SN12C renal,14.9 µM
same,GI50,SNB-19 CNS,2.4 µM
same,TGI,SNB-19 CNS,18.4 µM
same,GI50,SNB-75 CNS,0.321 µM
same,TGI,SNB-75 CNS,13.8 µM
same,GI50,SR leukemia,0.648 µM
same,TGI,SR leukemia,15.6 µM
same,GI50,SW-620 colon,1.32 µM
same,TGI,SW-620 colon,18.8 µM
same,GI50,T-47D breast,1.97 µM
same,TGI,T-47D breast,41.9 µM
same,GI50,TK-10 renal,16.1 µM
same,TGI,TK-10 renal,61.5 µM
same,GI50,U251 CNS,2.07 µM
same,TGI,U251 CNS,18.1 µM
same,GI50,UACC-257 melanoma,15.6 µM
same,TGI,UACC-257 melanoma,39.5 µM
same,GI50,UACC-62 melanoma,0.443 µM
same,TGI,UACC-62 melanoma,13.8 µM
same,GI50,UO-31 renal,0.662 µM
same,TGI,UO-31 renal,15.1 µM
